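Five compound concentrations were applied to cells in 96-well plates for 48 hours; endpoints were derived by simple linear interpolation of the resulting dose-response curve. GI50 = concentration required for 50% inhibition of growth.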 The source made the active and inactive calls. No stated cut-off is given here; in the data, active = GI50 up to about 1.1 µM and inactive = higher.
Key:
Assay in all cases: DTP human tumour cell line panel, 48 h
NCI-H23 = system: NCI-H23
DLD-1 = system: DLD-1
SK-MEL-5 = system: SK-MEL-5
TK-10 = system: TK-10
SW-620 = system: SW-620
M19-MEL = system: M19-MEL
SF-295 = system: SF-295
HCT-116 = system: HCT-116
NCI-H522 = system: NCI-H522
OVCAR-3 = system: OVCAR-3
IGROV-1 = system: IGROV-1
HOP-18 = system: HOP-18
SNB-19 = system: SNB-19
Malme-3M = system: Malme-3M
OVCAR-4 = system: OVCAR-4
786-0 = system: 786-0
HOP-92 = system: HOP-92
SK-OV-3 = system: SK-OV-3
ACHN = system: ACHN
LXFL 529 = system: LXFL 529
NCI-H460 = system: NCI-H460
SR = system: SR
KM12 = system: KM12
SK-MEL-28 = system: SK-MEL-28
A498 = system: A498
U-251 = system: U-251
A549 = system: A549
OVCAR-5 = system: OVCAR-5
RXF 393 = system: RXF 393
HOP-62 = system: HOP-62
HL-60 = system: HL-60
SF-539 = system: SF-539
UO-31 = system: UO-31
CAKI-1 = system: CAKI-1
OVCAR-8 = system: OVCAR-8
COLO 205 = system: COLO 205
HCT-15 = system: HCT-15
CCRF-CEM = system: CCRF-CEM
K562 = system: K562
SNB-75 = system: SNB-75
UACC-62 = system: UACC-62
HCC 2998 = system: HCC 2998
SF-268 = system: SF-268
M14 = system: M14
SK-MEL-2 = system: SK-MEL-2
RPMI-8226 = system: RPMI-8226
DMS-114 = system: DMS-114
SN12C = system: SN12C
DMS-273 = system: DMS-273
LOX IMVI = system: LOX IMVI
MOLT-4 = system: MOLT-4
KM-20L2 = system: KM-20L2
HT-29 = system: HT-29
SNB-78 = system: SNB-78
UACC-257 = system: UACC-257
EKVX = system: EKVX
NCI-H226 = system: NCI-H226

In the case of `COc1ccc(-c2nc3c(nc2-c2ccc(OC)cc2)N(C)S(=O)(=O)N=C3N)cc1`, the GI50 (NCI-H23) is reported as 28.7 µM (inactive), the GI50 (DLD-1) is reported as 33.3 µM (inactive) and the GI50 (SK-MEL-5) is reported as 11.6 µM (inactive). For the same compound, the GI50 (TK-10) was 28.1 µM (inactive), the GI50 (SW-620) was 28.8 µM (inactive) and the GI50 (M19-MEL) was 31.5 µM (inactive). The GI50 (SF-295) was 22.3 µM (inactive), the GI50 (HCT-116) was 15 µM (inactive) and the GI50 (NCI-H522) was 9.59 µM (inactive). The GI50 (OVCAR-3) was 14 µM (inactive), the GI50 (IGROV-1) was 28.1 µM (inactive) and the GI50 (HOP-18) was 47.2 µM (inactive). The GI50 (SNB-19) was 28.1 µM (inactive), the GI50 (Malme-3M) was 22.7 µM (inactive) and the GI50 (OVCAR-4) was 14.1 µM (inactive). The GI50 (786-0) was 16.9 µM (inactive), the GI50 (HOP-92) was 13.6 µM (inactive) and the GI50 (SK-OV-3) was 24.6 µM (inactive). The GI50 (ACHN) was 19.1 µM (inactive), the GI50 (LXFL 529) was 27.3 µM (inactive) and the GI50 (NCI-H460) was 22.8 µM (inactive). For the same compound, the GI50 (SR) was 9.89 µM (inactive), the GI50 (KM12) was 22.8 µM (inactive) and the GI50 (SK-MEL-28) was 32.1 µM (inactive). The GI50 (A498) was 22.5 µM (inactive), the GI50 (U-251) was 26.1 µM (inactive) and the GI50 (A549) was 27 µM (inactive). For the same compound, the GI50 (OVCAR-5) was 25.2 µM (inactive), the GI50 (RXF 393) was 10.9 µM (inactive) and the GI50 (HOP-62) was 33.6 µM (inactive). The GI50 (HL-60) was 15.9 µM (inactive), the GI50 (SF-539) was 18.3 µM (inactive) and the GI50 (UO-31) was 13.6 µM (inactive). For the same compound, the GI50 (CAKI-1) was 23.2 µM (inactive), the GI50 (OVCAR-8) was 34.2 µM (inactive) and the GI50 (COLO 205) was 14.7 µM (inactive). The GI50 (HCT-15) was 32.4 µM, the GI50 (CCRF-CEM) was 23.1 µM (inactive) and the GI50 (K562) was 24.4 µM (inactive). For the same compound, the GI50 (SNB-75) was 24 µM (inactive), the GI50 (UACC-62) was 22.8 µM (inactive) and the GI50 (HCC 2998) was 35.6 µM (inactive). The GI50 (SF-268) was 24.3 µM (inactive), the GI50 (M14) was 34.4 µM (inactive) and the GI50 (SK-MEL-2) was 20.5 µM (inactive). The GI50 (RPMI-8226) was 10.6 µM (inactive), the GI50 (DMS-114) was 17.3 µM (inactive) and the GI50 (SN12C) was 41 µM (inactive). The GI50 (DMS-273) was 41.6 µM (inactive), the GI50 (LOX IMVI) was 15.5 µM (inactive) and the GI50 (MOLT-4) was 11.9 µM (inactive). The GI50 (KM-20L2) was 40.6 µM (inactive) and the GI50 (HT-29) was 25.4 µM (inactive).

With `O=[N+]([O-])c1cccc(C2ON2C2CCCCC2)c1` (stereo not given) the GI50 (NCI-H23) was 24.7 µM (inactive), the GI50 (DLD-1) was 12 µM (inactive) and the GI50 (SK-MEL-5) was 17.7 µM (inactive). The GI50 (TK-10) was 30.3 µM (inactive), the GI50 (SW-620) was 10 µM (inactive) and the GI50 (M19-MEL) was 19.6 µM (inactive). For the same compound, the GI50 (SF-295) was > 100 µM (inactive), the GI50 (HCT-116) was 13.5 µM (inactive) and the GI50 (NCI-H522) was 17.4 µM (inactive). For the same compound, the GI50 (OVCAR-3) was 18.5 µM (inactive), the GI50 (IGROV-1) was 20 µM (inactive) and the GI50 (HOP-18) was 30.8 µM (inactive). For the same compound, the GI50 (SNB-19) was 29.1 µM (inactive), the GI50 (Malme-3M) was 22.8 µM (inactive) and the GI50 (OVCAR-4) was 17.8 µM (inactive). For the same compound, the GI50 (786-0) was 17.4 µM (inactive), the GI50 (HOP-92) was 45.9 µM (inactive) and the GI50 (SK-OV-3) was 35.2 µM (inactive). For the same compound, the GI50 (ACHN) was 17.5 µM (inactive), the GI50 (LXFL 529) was 20.7 µM (inactive) and the GI50 (NCI-H460) was 17.5 µM (inactive). For the same compound, the GI50 (SR) was 2.4 µM (inactive), the GI50 (KM12) was 8.81 µM (inactive) and the GI50 (SK-MEL-28) was 36.9 µM (inactive). The GI50 (A498) was 27.4 µM (inactive), the GI50 (U-251) was 3.98 µM (inactive) and the GI50 (A549) was 30.1 µM (inactive). The GI50 (OVCAR-5) was > 100 µM (inactive), the GI50 (HOP-62) was 31.1 µM (inactive) and the GI50 (HL-60) was 17.5 µM (inactive). For the same compound, the GI50 (SNB-78) was 27.4 µM (inactive), the GI50 (SF-539) was 22.5 µM (inactive) and the GI50 (UO-31) was 22.6 µM (inactive). The GI50 (CAKI-1) was 24.2 µM (inactive), the GI50 (OVCAR-8) was 17.6 µM (inactive) and the GI50 (COLO 205) was 17.6 µM (inactive). For the same compound, the GI50 (HCT-15) was 16.9 µM, the GI50 (CCRF-CEM) was 4.88 µM (inactive) and the GI50 (K562) was 14.4 µM (inactive). The GI50 (SNB-75) was 38.5 µM (inactive), the GI50 (UACC-62) was 20.4 µM (inactive) and the GI50 (HCC 2998) was 17.2 µM (inactive). The GI50 (SF-268) was 23.3 µM (inactive), the GI50 (UACC-257) was 21.6 µM (inactive) and the GI50 (M14) was 18.5 µM (inactive). The GI50 (EKVX) was 44 µM (inactive), the GI50 (SK-MEL-2) was 25.5 µM (inactive) and the GI50 (RPMI-8226) was 2.94 µM (inactive). The GI50 (DMS-114) was 19.1 µM (inactive), the GI50 (SN12C) was 18.3 µM (inactive) and the GI50 (DMS-273) was 18.4 µM (inactive). The GI50 (MOLT-4) was 18.3 µM (inactive), the GI50 (KM-20L2) was 22.3 µM (inactive) and the GI50 (HT-29) was 11.5 µM (inactive).

In the case of `[N-]=[N+]=NC(c1cn(C2CC(O)C(CO)O2)c(=O)[nH]c1=O)C(Br)Br` (stereo not given), the GI50 (NCI-H23) is reported as > 100 µM (inactive), the GI50 (DLD-1) is reported as > 100 µM (inactive) and the GI50 (SK-MEL-5) is reported as > 100 µM (inactive). The GI50 (TK-10) was > 100 µM (inactive), the GI50 (SW-620) was > 100 µM (inactive) and the GI50 (M19-MEL) was > 100 µM (inactive). For the same compound, the GI50 (SF-295) was > 100 µM (inactive), the GI50 (HCT-116) was > 100 µM (inactive) and the GI50 (NCI-H522) was > 100 µM (inactive). The GI50 (OVCAR-3) was > 100 µM (inactive), the GI50 (NCI-H226) was > 100 µM (inactive) and the GI50 (IGROV-1) was > 100 µM (inactive). For the same compound, the GI50 (HOP-18) was > 100 µM (inactive), the GI50 (SNB-19) was > 100 µM (inactive) and the GI50 (Malme-3M) was > 100 µM (inactive). For the same compound, the GI50 (786-0) was > 100 µM (inactive), the GI50 (HOP-92) was > 100 µM (inactive) and the GI50 (SK-OV-3) was > 100 µM (inactive). The GI50 (ACHN) was > 100 µM (inactive), the GI50 (LXFL 529) was > 100 µM (inactive) and the GI50 (NCI-H460) was > 100 µM (inactive). For the same compound, the GI50 (SR) was > 100 µM (inactive), the GI50 (KM12) was > 100 µM (inactive) and the GI50 (SK-MEL-28) was > 100 µM (inactive). For the same compound, the GI50 (U-251) was > 100 µM (inactive), the GI50 (A549) was > 100 µM (inactive) and the GI50 (OVCAR-5) was > 100 µM (inactive). For the same compound, the GI50 (RXF 393) was > 100 µM (inactive), the GI50 (HOP-62) was > 100 µM (inactive) and the GI50 (HL-60) was > 100 µM (inactive). For the same compound, the GI50 (SNB-78) was > 100 µM (inactive), the GI50 (SF-539) was > 100 µM (inactive) and the GI50 (UO-31) was > 100 µM (inactive). For the same compound, the GI50 (CAKI-1) was > 100 µM (inactive), the GI50 (OVCAR-8) was > 100 µM (inactive) and the GI50 (COLO 205) was > 100 µM (inactive). For the same compound, the GI50 (HCT-15) was > 100 µM, the GI50 (CCRF-CEM) was > 100 µM (inactive) and the GI50 (K562) was > 100 µM (inactive). For the same compound, the GI50 (SNB-75) was > 100 µM (inactive), the GI50 (UACC-62) was > 100 µM (inactive) and the GI50 (HCC 2998) was > 100 µM (inactive). For the same compound, the GI50 (M14) was > 100 µM (inactive), the GI50 (EKVX) was > 100 µM (inactive) and the GI50 (SK-MEL-2) was > 100 µM (inactive). For the same compound, the GI50 (RPMI-8226) was > 100 µM (inactive), the GI50 (DMS-114) was > 100 µM (inactive) and the GI50 (SN12C) was > 100 µM (inactive). For the same compound, the GI50 (DMS-273) was > 100 µM (inactive), the GI50 (LOX IMVI) was > 100 µM (inactive) and the GI50 (MOLT-4) was > 100 µM (inactive). The GI50 (KM-20L2) was > 100 µM (inactive) and the GI50 (HT-29) was > 100 µM (inactive).

Source: ChEMBL document CHEMBL1201862, “PubChem BioAssay data set” (2004)
